Laboratory results reported in the NIST ThermoML archive (doi:10.1016/j.jct.2011.02.018).

Experiment: xn = mol fraction of the nth substance listed
Settings: 101 kPa, Liquid; for viscosity: Concentric cylinders viscometry; for mass density: Vibrating tube method

COC(C)(C)C [2-methoxy-2-methylpropane] + CC(C)O
Settings | mass density, 293.15 K [kg/m3] | mass density, 298.15 K [kg/m3] | mass density, 303.15 K [kg/m3] | mass density, 308.15 K [kg/m3] | viscosity, 293.15 K [mPa·s] | viscosity, 298.15 K [mPa·s] | viscosity, 303.15 K [mPa·s] | viscosity, 308.15 K [mPa·s]
x1 = 0.0093 | 784.82 | 780.63 | 776.34 | 771.97 | 2.325 | 1.988 | 1.716 | 1.488
x1 = 0.0206 | 784.14 | 779.92 | 775.62 | 771.24 | 2.232 | 1.919 | 1.661 | 1.444
x1 = 0.0305 | 783.55 | 779.33 | 775.01 | 770.65 | 2.145 | 1.853 | 1.606 | 1.399
x1 = 0.0398 | 783 | 778.77 | 774.43 | 770.06 | 2.066 | 1.773 | 1.547 | 1.35
x1 = 0.0499 | 782.41 | 778.17 | 773.82 | 769.37 | 1.982 | 1.719 | 1.496 | 1.307
x1 = 0.0601 | 781.75 | 777.51 | 773.15 | 768.84 | 1.901 | 1.653 | 1.443 | 1.264
x1 = 0.0702 | 781.19 | 776.93 | 772.55 | 768.22 | 1.832 | 1.595 | 1.395 | 1.226
x1 = 0.0799 | 780.66 | 776.38 | 772 | 767.62 | 1.761 | 1.538 | 1.348 | 1.186
x1 = 0.0914 | 780.12 | 775.85 | 771.45 | 766.96 | 1.693 | 1.479 | 1.299 | 1.145
x1 = 0.1009 | 779.62 | 775.32 | 770.89 | 766.39 | 1.634 | 1.432 | 1.26 | 1.112
x1 = 0.1493 | 777.01 | 772.62 | 768.12 | 763.55 | 1.391 | 1.235 | 1.093 | 0.9806
x1 = 0.2014 | 774.27 | 769.81 | 765.24 | 760.59 | 1.193 | 1.057 | 0.9479 | 0.8473
x1 = 0.244 | 771.96 | 767.45 | 762.82 | 758.12 | 1.05 | 0.9465 | 0.8652 | 0.7741
x1 = 0.2863 | 769.95 | 765.38 | 760.69 | 755.94 | 0.9352 | 0.8443 | 0.7635 | 0.6933
x1 = 0.3081 | 768.87 | 764.26 | 759.55 | 754.77 | 0.885 | 0.8004 | 0.7251 | 0.6588
x1 = 0.351 | 766.72 | 762.06 | 757.3 | 752.47 | 0.8018 | 0.729 | 0.6639 | 0.6054
x1 = 0.3995 | 764.43 | 759.73 | 754.91 | 750.02 | 0.7225 | 0.6613 | 0.6057 | 0.5521
x1 = 0.4516 | 762.08 | 757.31 | 752.43 | 747.48 | 0.6544 | 0.6008 | 0.5514 | 0.501
x1 = 0.4999 | 759.97 | 755.15 | 750.22 | 745.22 | 0.6 | 0.5578 | 0.5139 | 0.4673
x1 = 0.5497 | 757.86 | 752.98 | 748.01 | 742.97 | 0.5545 | 0.5128 | 0.4738 | 0.4345
x1 = 0.5994 | 755.8 | 750.88 | 745.87 | 740.79 | 0.5151 | 0.477 | 0.4395 | 0.4032
x1 = 0.6493 | 753.77 | 748.81 | 743.75 | 738.63 | 0.4839 | 0.4481 | 0.4129 | 0.3822
x1 = 0.6993 | 751.8 | 746.81 | 741.69 | 736.5 | 0.4525 | 0.4253 | 0.3938 | 0.3678
x1 = 0.7499 | 749.84 | 744.78 | 739.62 | 734.4 | 0.4259 | 0.398 | 0.3695 | 0.3487
x1 = 0.8015 | 747.89 | 742.8 | 737.6 | 732.34 | 0.4066 | 0.3819 | 0.352 | 0.3323
x1 = 0.8509 | 746.05 | 740.92 | 735.7 | 730.41 | 0.3844 | 0.3613 | 0.3397 | 0.3136
x1 = 0.8997 | 744.25 | 739.1 | 733.84 | 728.52 | 0.3678 | 0.3459 | 0.3193 | 0.303
x1 = 0.9089 | 743.91 | 738.76 | 733.49 | 728.17 | 0.3718 | 0.3448 | 0.3254 | 0.298
x1 = 0.9191 | 743.54 | 738.35 | 733.11 | 727.78 | 0.3617 | 0.3398 | 0.3152 | 0.2968
x1 = 0.9294 | 743.17 | 737.99 | 732.74 | 727.41 | 0.3609 | 0.3374 | 0.3121 | 0.2986
x1 = 0.9401 | 742.78 | 737.6 | 732.34 | 727.01 | 0.3548 | 0.3317 | 0.307 | 0.293
x1 = 0.9512 | 742.37 | 737.18 | 731.91 | 726.58 | 0.355 | 0.3361 | 0.3045 | 0.2959
x1 = 0.9587 | 742.11 | 736.92 | 731.64 | 726.3 | 0.3558 | 0.3309 | 0.3021 | 0.2906
x1 = 0.97 | 741.7 | 736.51 | 731.24 | 725.88 | 0.3466 | 0.3247 | 0.302 | 0.2819
x1 = 0.9777 | 741.42 | 736.23 | 730.94 | 725.59 | 0.3447 | 0.3228 | 0.2983 | 0.2804
x1 = 0.9897 | 740.99 | 735.8 | 730.5 | 725.16 | 0.342 | 0.3204 | 0.2943 | 0.283
